Here are results for 7 compounds from ChEMBL document CHEMBL5500420, “Discovery of BI-9508, a Brain-Penetrant GPR88-Receptor-Agonist Tool Compound for In Vivo Mouse Studies” (J Med Chem, 2024).

Data set [1] can be described thus: Protein binding in mouse plasma at 1 uM incubated for 2 hrs by equilibrium dialysis based HPLC-MS/MS analysis. Particulars: read-out: PPB (converted). Type of data set: ADME, cell-free.
The nature of data set [2]: Solubility of compound at pH 7 by high-throughput analysis. To be noted: buffer. In kind it is physicochemical.
In data set [3] the target is G protein-coupled receptor 88 (Homo sapiens, UniProt Q9GZN0). Briefly: Agonist activity at human GPR88 transfected in HEK293 cells incubated for 10 mins by Gi1 BRET assay.
Chain of G protein-coupled receptor 88 (Homo sapiens, UniProt Q9GZN0) (Q9GZN0 whole entry): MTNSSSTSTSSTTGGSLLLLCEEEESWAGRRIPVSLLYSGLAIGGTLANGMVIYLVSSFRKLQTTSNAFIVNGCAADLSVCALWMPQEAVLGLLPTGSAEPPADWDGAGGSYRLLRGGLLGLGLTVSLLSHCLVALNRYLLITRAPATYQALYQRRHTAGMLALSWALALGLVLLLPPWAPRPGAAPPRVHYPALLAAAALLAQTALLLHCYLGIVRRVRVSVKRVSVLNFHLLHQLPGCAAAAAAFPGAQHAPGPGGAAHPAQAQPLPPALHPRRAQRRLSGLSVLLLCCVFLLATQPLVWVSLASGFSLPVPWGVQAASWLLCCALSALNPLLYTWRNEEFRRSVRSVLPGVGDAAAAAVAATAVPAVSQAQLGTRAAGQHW
The target of data set [4] is T1, G protein-coupled receptor 88 (Mus musculus, UniProt Q9EPB7). The data set can be described thus: Agonist activity at GPR88 in wildtype mouse striatal membrane assessed as stimulation of [35S]-GTPgammaS binding incubated for 1 hrs in presence of GDP by liquid scintillation counter.
T1 sequence (Q9EPB7 whole entry): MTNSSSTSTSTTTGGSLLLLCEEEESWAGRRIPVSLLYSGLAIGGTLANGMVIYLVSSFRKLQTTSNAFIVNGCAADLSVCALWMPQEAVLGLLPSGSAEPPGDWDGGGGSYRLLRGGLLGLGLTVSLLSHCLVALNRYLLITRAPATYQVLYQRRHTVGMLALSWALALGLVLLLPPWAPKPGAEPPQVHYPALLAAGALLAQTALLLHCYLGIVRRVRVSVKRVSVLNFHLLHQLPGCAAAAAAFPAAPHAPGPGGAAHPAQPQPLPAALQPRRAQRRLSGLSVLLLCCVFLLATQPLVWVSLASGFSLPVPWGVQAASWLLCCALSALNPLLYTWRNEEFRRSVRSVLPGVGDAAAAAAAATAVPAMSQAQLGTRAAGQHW
For data set [5], the target named is T1, G protein-coupled receptor 88. Briefly: Agonist activity at mouse GPR88 transfected in HEK293 cells incubated for 10 mins by Gi1 BRET assay. Type of data set: functional, cell-based.
In a further data set the test system is P-gp. The data set can be described thus: Apparent permeability in P-gp overexpressing MDCK-MDR1 cells at 1 uM incubated upto 2 hrs. Type of data set: ADME, cell-based, Canis lupus familiaris. Particulars: dog.

≈ marks a conversion by molar mass, not a printed value.

On to `CC(C)Oc1ccc(-c2ccc(N(CCOC(F)F)C(=O)[C@@H]3C[C@H]3c3ccncn3)c3ncnn23)cc1`, for which the fraction unbound at 2 h, 1 µM in data set [1] is 0.062. In data set [2], this compound gave a solubility of 11 µg/mL (≈ 21.6 µM).
Take `COc1cc(-c2ccc(OC(C)C)cc2)ccc1N(C[C@@H](N)[C@@H](C)OC)C(=O)[C@@H]1C[C@H]1c1ccncn1`: the EC50 turned out to be 168 nM in data set [3], 6100 nM in data set [4] and 226 nM in data set [5].
As to `COc1cc(-c2ccc(O[C@@H](C)C(F)(F)F)nc2)ccc1N(CCOC(F)F)C(=O)[C@@H]1C[C@H]1c1ccncn1`, the fraction unbound at 2 h, 1 µM in data set [1] was 0.004.
Take `CO[C@H](C)[C@H](N)CN(C(=O)[C@@H]1C[C@H]1c1ccncn1)c1ccc(-c2ccc(OC(C)C)nc2)cc1`: the fraction unbound at 2 h, 1 µM in data set [1] is 0.052.
Turning to `CC(C)Oc1ccc(-c2ccc(N(CCOC(F)F)C(=O)[C@@H]3C[C@H]3c3ccncn3)c3c2cnn3C)cc1`, the EC50 in data set [5] came out at 94 nM.
As for `CO[C@H](C)[C@H](N)CN(C(=O)[C@@H]1C[C@H]1c1ccncn1)c1ccc(-c2ccc(OC(C)C)cc2)cc1`, in data set [3], the EC50 was > 99000 nM.
On to `Cc1nnc2n1-c1sc(CCC(=O)N3CCOCC3)cc1C(c1ccccc1Cl)=NC2` [APAFANT], for which the Papp at 2 h, 1 µM in the data set with P-gp was determined as 3 ×10⁻⁶ cm/s.
